In experiment [1] the test system is Plasmodium falciparum. As to the kind of experiment: In vitro inhibitory concentration against Plasmodium falciparum W2 Indochina. In kind it is functional, organism-based.
Experiment [2] has as its system Plasmodium falciparum. As to the kind of experiment: In vitro inhibitory concentration against Plasmodium falciparum D6 (Sierra Leone). The experiment is classed as functional, organism-based.
Experiment [3] relates to Mus musculus. As to the kind of experiment: T/C is life span of treated mice/control at a compound dose of 16 (mg/kg). In kind it is functional.
For experiment [4], the species on record is Mus musculus. In words: Dose that causes 50% suppression of Plasmodium berghei parasitaemia in the treated mice (Mus musculus) compared to untreated controls. The experiment is classed as functional.
In experiment [5] the test system is Mus musculus. In words: T/C is life span of treated mice/control at a compound dose of 64 (mg/kg). In kind it is functional.
Experiment [6] relates to Mus musculus. In words: T/C is life span of treated mice/control at a compound dose of 4 (mg/kg). In kind it is functional.
Experiment [7] is filed under the species Mus musculus. As to the kind of experiment: Dose that causes 90% suppression of Plasmodium berghei parasitaemia in the treated mice (Mus musculus) compared to untreated controls. In kind it is functional.
For experiment [8], the system named is Mus musculus. As to the kind of experiment: T/C is life span of treated mice/control at a compound dose of 16,(mg/kg). In kind it is functional.

Converted amounts (≈) assume the structure as drawn.

With `C[C@@H]1CCC2[C@@H](C)[C@@H](OC(CCC(=O)O)c3ccc(Cl)cc3)O[C@@H]3OC4(C)CC[C@@H]1C23OO4` (stereo not given in full), the concentration for half-maximal inhibition (IC50) – broadly, the concentration that inhibits the measured activity by half – in experiment [1] was 1.26 ng/mL (≈ 2.62 nM); in experiment [2] it was 2.4 ng/mL (≈ 5 nM).
Take `C[C@@H]1CCC2[C@@H](C)[C@H](OC(CCC(=O)O)c3ccc(Br)cc3)O[C@@H]3OC4(C)CC[C@@H]1C23OO4` (stereo not given in full): the T/C in experiment [3] was 3.5 days; in experiment [5] it was 5.8 days; in experiment [6], 2.7 days. Besides, the SD50 in experiment [4] was 16.26 mg/kg. In addition, the half-inhibitory concentration (IC50) was 0.313 ng/mL (≈ 0.596 nM) in experiment [1] and 0.405 ng/mL (≈ 0.771 nM) in experiment [2]. This compound displayed an SD90 in experiment [7] of 48.18 mg/kg.
Consider `C[C@@H]1CCC2[C@@H](C)[C@@H](OC(CCC(=O)O)c3ccc(F)cc3)O[C@@H]3OC4(C)CC[C@@H]1C23OO4` (stereo not given in full), for which the results for the half-maximal inhibitory concentration (IC50) in experiment [1] and in experiment [2] were 0.828 ng/mL (≈ 1.78 nM) and 2.33 ng/mL (≈ 5.02 nM), respectively.
With `COC(=O)CCC(O[C@@H]1O[C@@H]2OC3(C)CC[C@H]4[C@H](C)CCC([C@H]1C)C24OO3)c1ccc(F)cc1` (stereo not given in full), the 50% inhibitory concentration (IC50) in experiment [1] stood at 0.398 ng/mL (≈ 0.832 nM); in experiment [2], 0.43 ng/mL (≈ 0.9 nM).
On the same counts, the results for `COC(=O)CCC(O[C@H]1O[C@@H]2OC3(C)CC[C@H]4[C@H](C)CCC([C@H]1C)C24OO3)c1ccc(F)cc1` (stereo not given in full) are 0.488 ng/mL (≈ 1.02 nM) and 0.616 ng/mL (≈ 1.29 nM).
As for `COc1ccc(C(CCC(=O)O)O[C@@H]2O[C@@H]3OC4(C)CC[C@H]5[C@H](C)CCC([C@H]2C)C35OO4)cc1` (stereo not given in full), the T/C in experiment [3] came out at 2.5 days; in experiment [5] it was 4 days; in experiment [6], 1.7 days. In addition, the SD50 in experiment [4] came out at 25.06 mg/kg. Besides, the concentration for half-maximal inhibition (IC50) in experiment [1] amounted to 3.45 ng/mL (≈ 7.24 nM); in experiment [2] it was 3.82 ng/mL (≈ 8.01 nM). In experiment [7], this compound had an SD90 of 54.99 mg/kg.
`COC(=O)CCC(O[C@@H]1O[C@@H]2OC3(C)CC[C@H]4[C@H](C)CCC([C@H]1C)C24OO3)c1ccc(Br)cc1` (stereo not given in full): the IC50 in experiment [1] came out at 0.543 ng/mL (≈ 1.01 nM); in experiment [2], 0.673 ng/mL (≈ 1.25 nM).
Take `COC(=O)CCC(O[C@H]1O[C@@H]2OC3(C)CC[C@H]4[C@H](C)CCC([C@H]1C)C24OO3)c1ccc(Cl)cc1` (stereo not given in full): the IC50 in experiment [1] came to 0.794 ng/mL (≈ 1.6 nM); in experiment [2], 0.903 ng/mL (≈ 1.82 nM).
On the same counts, the results for `COC(=O)CCC(O[C@@H]1O[C@@H]2OC3(C)CC[C@H]4[C@H](C)CCC([C@H]1C)C24OO3)c1ccc(OC)cc1` (stereo not given in full) are 0.647 ng/mL (≈ 1.32 nM) and 0.827 ng/mL (≈ 1.68 nM).
As to `C[C@@H]1CCC2[C@@H](C)[C@@H](OC(CCC(=O)O)c3ccc(Br)cc3)O[C@@H]3OC4(C)CC[C@@H]1C23OO4` (stereo not given in full), the IC50 in experiment [1] worked out at 0.419 ng/mL (≈ 0.797 nM); in experiment [2], 1.36 ng/mL (≈ 2.59 nM).
As for `COC(=O)CC[C@@H](O[C@@H]1O[C@@H]2O[C@@]3(C)CC[C@H]4[C@H](C)CCC([C@H]1C)[C@@]24OO3)c1ccc(Cl)cc1` (stereo not given in full), the 50% inhibitory concentration (IC50) in experiment [1] came out at 0.629 ng/mL (≈ 1.27 nM); in experiment [2], 0.728 ng/mL (≈ 1.47 nM).
Turning to `C[C@@H]1CC[C@H]2[C@@H](C)C(=O)O[C@@H]3O[C@@]4(C)CC[C@@H]1[C@]32OO4` [ARTEMISININ], the IC50 was 2.14 ng/mL (≈ 7.57 nM) in experiment [1] and 3.91 ng/mL (≈ 13.9 nM) in experiment [2].
As for `C[C@@H]1CCC2[C@@H](C)[C@H](OC(CCC(=O)O)c3ccc(Cl)cc3)O[C@@H]3OC4(C)CC[C@@H]1C23OO4` (stereo not given in full), the SD50 in experiment [4] was 14.39 mg/kg. The T/C in experiment [5] was 4.8 days; in experiment [6], 2.3 days; in experiment [8], 3.8 days. For the same compound, the IC50 stood at 0.357 ng/mL (≈ 0.742 nM) in experiment [1] and 0.38 ng/mL (≈ 0.79 nM) in experiment [2]. This compound returned an SD90 in experiment [7] of 45.04 mg/kg.
In the case of `C[C@@H]1CCC2[C@@H](C)[C@H](OC(CCC(=O)O)c3ccc(F)cc3)O[C@@H]3OC4(C)CC[C@@H]1C23OO4` (stereo not given in full), the T/C in experiment [3] is 2.8 days; in experiment [5], 3.3 days; in experiment [6] it was 1.5 days. The SD50 in experiment [4] was 28.16 mg/kg. Further, the IC50 is 1.34 ng/mL (≈ 2.88 nM) in experiment [1] and 2.21 ng/mL (≈ 4.76 nM) in experiment [2]. This compound yielded an SD90 in experiment [7] of 58.07 mg/kg.
As to `C[C@H]1C(Oc2ccc(C(=O)[O-])cc2)O[C@@H]2O[C@]3(C)CC[C@H]4[C@H](C)CCC1C24OO3.[Na+]` (stereo not given in full), the T/C in experiment [3] was found to be 2.7 days; in experiment [5], 4.3 days. The SD50 in experiment [4] is 56 mg/kg.
As for `COC(=O)CC[C@@H](O[C@H]1O[C@@H]2O[C@@]3(C)CC[C@H]4[C@H](C)CCC([C@H]1C)[C@@]24OO3)c1ccc(Cl)cc1` (stereo not given in full), the IC50 in experiment [1] was 0.656 ng/mL (≈ 1.33 nM); in experiment [2], 0.391 ng/mL (≈ 0.79 nM).
Turning to `COC(=O)CCC(O[C@H]1O[C@@H]2OC3(C)CC[C@H]4[C@H](C)CCC([C@H]1C)C24OO3)c1ccc(Br)cc1` (stereo not given in full), the concentration for half-maximal inhibition (IC50) amounted to 0.62 ng/mL (≈ 1.15 nM) in experiment [1] and 1.01 ng/mL (≈ 1.87 nM) in experiment [2].

Values taken from ChEMBL document CHEMBL1130006, “Antimalarial activity of new dihydroartemisinin derivatives. 7. 4-(p-substituted phenyl)-4(R or S)-[10(alpha or beta)-dihydroartemisininoxy]butyric acids” (J Med Chem, 1997).
